Reference: patent US7067520B2, “Preventive or therapeutic medicines for diabetes containing fused-heterocyclic compounds or their salts” (Ishihara Sangyo Kaisha, Ltd., priority 2000, dated 2006)

SMILES | melting point
CSc1nc2ccnn2c(NCc2cccc(Cl)c2)c1C#N [compound 32] | 155 °C
CCOC(=O)c1ccc(Nc2c(C#N)c(SC)nc3ccnn23)cc1 [compound 175] | 191 to 192 °C
CSc1nc2ccnn2c(NCCOc2ccccc2)c1C#N [compound 181] | 122 °C
CCOCSc1nc2ccnn2c(NCc2ccccc2)c1C#N [compound 117] | 130.5 to 133.5 °C
CSc1nc2ccnn2c(NCc2ccncc2)c1S(C)(=O)=O [compound 63] | 195 to 196 °C
CSc1nc2ccnn2c(NCc2ccco2)c1C#N [Compound No. 78, 7-furfurylamino-5-methylthiopyrazolo[1,5-a]pyrimidine-6-carbonitrile] | 110 °C
CSc1nc2ccnn2c(OCc2ccccc2)c1C#N [Compound No. 51, 7-benzyloxy-5-methylthiopyrazolo[1,5-a]pyrimidine-6-carbonitrile] | 194 °C
CSc1nc2ccnn2c(NCc2ccccc2)c1[N+](=O)[O-] [compound 125] | 136.5 to 138.5 °C
CSc1nc2ccnn2c(Nc2ccc(CC#N)cc2)c1C#N [compound 198] | 268 to 269 °C
CSc1nc2ccnn2c(Nc2cccc(C(=O)O)c2)c1C#N [compound 195] | 168 to 171 °C
CSc1nc2ccnn2c(NCc2ccccc2)c1S(C)(=O)=O [compound 61] | 163 to 164 °C
CSc1nc2ccnn2c(Nc2ccc(S(=O)(=O)N(C)C)cc2)c1C#N [compound 150] | 303 to 306 °C (dec.)
CSc1nc2ccnn2c(Nc2cccc(C#N)c2)c1C(=O)O [compound 134] | 162.5 to 164.5 °C
COC(=O)c1c(SC)nc2ccnn2c1Cl [compound 119] | 105 to 113 °C
N#Cc1c(Cc2ccccc2)nc2ccnn2c1N [compound 87] | 242 °C
CSc1nc2ccnn2c(NCC(=O)c2ccccc2)c1C#N [compound 18] | 212 to 213 °C
CSc1nc2ccnn2c(NC(C)=O)c1C#N [Compound No. 7] | > 280 °C
COC(=O)c1c(SC)nc2ccnn2c1NC1CCCC1 [compound 123] | 84.5 to 85.5 °C
COc1c(C#N)c(SC)nc2ccnn12 [compound 229] | 223 to 224 °C
CSc1nc2ccnn2c(O)c1C#N [compound 49, 7-hydroxy-5-methylthiopyrazolo[1,5-a]pyrimidine-6-carbonitrile] | > 250 °C
N#Cc1c(-c2ccccc2)nc2ccnn2c1NCc1ccccc1 [compound 86] | 120 to 122 °C
CSc1nc2ccnn2c(NOc2ccccc2)c1C#N [compound 179] | > 250 °C
CCSc1nc2ccnn2c(NCc2ccccc2)c1C#N [compound 67] | 112 to 113.4 °C

SMILES | melting point
CSc1nc2nc(SC)c(C#N)c(NCc3ccccc3)n2n1 [compound 36] | 154 °C
CCOC(=O)CNc1c(C#N)c(SC)nc2ccnn12 [compound 13] | 184 to 185 °C
CSc1nc2ccnn2c(Nc2ccncc2)c1C#N [compound 81] | 260 to 263 °C
CSc1nc2ccnn2c(OCCOc2ccccc2)c1C#N [compound 182] | 125 °C
CCN(Cc1ccncc1)c1c(C#N)c(SC)nc2ccnn12 [compound 228] | 102 to 103 °C
C#CCNc1c(S(C)(=O)=O)c(SC)nc2ccnn12 [compound 59] | 175 °C
CSc1nc2ccnn2c(Nc2ccc(C(N)=O)cc2)c1C#N [compound 197] | > 280 °C
CSc1nc2ccnn2c(Nc2ccc(C(=O)O)cc2)c1C#N [compound 176] | > 250 °C
CSc1nc2ccnn2c(NCC#N)c1C#N [compound 84] | 207 °C
CSc1nc2ccnn2c(N)c1C#N [compound 1, 7-amino-5-methylthiopyrazolo[1,5-a]pyrimidine-6-carbonitrile] | > 240 °C
CSc1nc2cc(C)nn2c(NCc2ccncc2)c1C#N [compound 188] | 190 to 191 °C
COc1ccc(Nc2c(C#N)c(SC)nc3ccnn23)cc1 [compound 169] | 214 to 215 °C
CSc1nc2c(Br)cnn2c(N)c1C#N [compound 54] | > 250 °C
N#Cc1c(SCc2ccccc2)nc2ccnn2c1N [compound 69] | 245.6 to 245.9 °C
CCC(CC)Sc1nc2ccnn2c(NCc2ccccc2)c1C#N [compound 114] | 107 to 108.3 °C
CSc1nc2ccnn2c(NCc2ccc(Cl)cc2)c1C#N [compound 31] | 167 °C
COC(=O)c1ccc(Nc2c(C#N)c(SC)nc3ccnn23)cc1 [compound 171] | 205 to 206 °C
COCSc1nc2ccnn2c(N)c1C#N [compound 106] | 214 to 216 °C (dec.)
CSc1nc2ccnn2c(NCOCc2ccccc2)c1C#N [compound 10] | 63 to 64 °C
CSc1nc2nc3ccccc3n2c(N)c1C#N [compound 45] | > 250 °C
CSc1nc2ccnn2c(NCc2ccc([N+](=O)[O-])cc2)c1C#N [compound 16] | 215 °C
CSc1nc2ccnn2c(NCc2ccncc2)c1C(=O)OCc1ccccc1 [compound 147] | 122 to 123 °C
CSc1nc2ccnn2c(NCCC(C)C)c1C#N [compound 19] | 87 to 88 °C

SMILES | melting point
CSc1nc2ccnn2c(NCc2ncc(C(F)(F)F)cc2Cl)c1C#N [compound 207] | 185 to 187 °C
CSc1nc2cc(C)nn2c(NCc2ccccc2)c1C#N [compound 187] | 204 to 205 °C
CSc1nc2ccnn2c(Nc2ccc(S(N)(=O)=O)cc2)c1C#N [compound 149] | 285 to 288 °C (dec.)
N#Cc1c(Cc2ccccc2)nc2ccnn2c1NCc1ccccc1 [compound 88] | 163 °C
CSc1nc2ccnn2c(Nc2cccc(Cl)c2)c1C#N [compound 162] | 161 to 162 °C
CSc1nc2ccnn2c(Nc2ccc(OC(F)(F)F)cc2)c1C#N [compound 167] | 243 to 244 °C
CSc1nc2ccnn2c(NCc2ccncc2)c1C(=O)O [compound 129] | 155 to 157 °C
CSc1nc2cc(-c3ccccc3)nn2c(N)c1C#N [compound 44] | 233 °C
CSc1nc2ccnn2c(NC2CCCC2)c1[N+](=O)[O-] [compound 127] | 132 to 134 °C
CSc1nc2c(Br)cnn2c(NCc2ccccc2)c1C#N [compound 55] | 184 °C
C=CCSc1nc2ccnn2c(NCc2ccccc2)c1C#N [compound 77] | 90 to 91.5 °C
CSc1nc2ccnn2c(N2CCC(C)CC2)c1C#N [compound 160] | 118 to 120 °C
CSc1nc2ccnn2c(NCc2cccs2)c1C#N [compound 180] | 142 °C
CSc1nc2nccn2c(NCc2ccccc2)c1C#N [compound 42] | 179 °C
CSc1nc2ccnn2c(Nc2cccc(S(N)(=O)=O)c2)c1C#N [compound 152] | > 280 °C
CSc1nc2ccnn2c(SCc2ccccc2)c1C#N [compound 183] | 138 °C
CSc1nc2ccnn2c(NCCC2OCCCO2)c1C#N [compound 216] | 103 to 104 °C
CSc1nc2cc(C)nn2c(Nc2ccccc2)c1C#N [compound 189] | 185 to 187 °C
N#Cc1c(-c2ccccc2)nc2ccnn2c1N [compound 85] | > 250 °C
N#Cc1c(Cc2ccccc2)nc2ccnn2c1NCc1ccncc1 [compound 90] | 195 to 198 °C
CSc1nc2ccnn2c(NOCC2CCCO2)c1C#N (stereo not drawn) [compound 213] | 143 to 144 °C
CSc1nc2ccnn2c(N)c1S(C)(=O)=O [compound 58] | 230 to 233 °C
CSc1nc2nc(SC)c(C#N)c(N)n2n1 [compound 35] | > 250 °C

SMILES | melting point
CSc1nc2ccnn2c(NCCc2ccccc2)c1C#N [compound 12] | 107 °C
C#CCSc1nc2ccnn2c(NCc2ccncc2)c1C#N [compound 96] | 208.5 to 208.7 °C
CSc1nc2nc(SC)c(C#N)c(NCc3ccncc3)n2n1 [compound 38] | 230 to 233 °C
CSc1nc2ccnn2c(N=Cc2ccccc2)c1C#N [compound 34] | 188 °C
CSc1nc2cc(C)nn2c(Cl)c1C#N [compound 185] | 182 to 187 °C
CSc1nc2ccnn2c(Nc2ccc(S(C)(=O)=O)cc2)c1C#N [compound 201] | 241 to 244 °C
CSc1nc2ccnn2c(Nc2ccccc2C#N)c1C#N [compound 214] | 206 to 208 °C
CSc1nc(NCc2ccccc2)n2nccc2n1 [compound 39] | 133 °C
COc1ccc(CNc2c(C#N)c(SC)nc3ccnn23)cc1 [compound 56] | 137 °C
CSc1nc2ccnn2c(N)c1C#N [compound 41] | > 250 °C
CSc1nc2cccn2c(NC2CCCCC2)c1C#N [compound 109] | 117 to 118 °C
N#Cc1c(SC2CCCC2)nc2ccnn2c1NCc1ccccc1 [compound 104] | 115.8 to 116.6 °C
C=CCSc1nc2ccnn2c(NCc2ccncc2)c1C#N [compound 76] | 178.8 to 179.8 °C
CSc1nc2ccnn2c(NCC2CCCO2)c1C#N (stereo not drawn) [compound 212] | 116 to 120 °C
COc1cccc(Nc2c(C#N)c(SC)nc3cc(C)nn23)c1 [compound 192] | 142 to 143 °C
CSc1nc2ccnn2c(Cl)c1C#N [compound 62, 7-chloro-5-methylthiopyrazolo[1,5-a]pyrimidine-6-carbonitrile] | 201 to 202 °C
N#Cc1c(SCc2ccccc2)nc2ccnn2c1NCc1ccccc1 [compound 70] | 121 to 122.2 °C
CSc1nc2ccnn2c(Nc2ccc3c(c2)CCC3)c1C#N [compound 165] | 146 to 148 °C
COC(=O)c1cccc(Nc2c(C#N)c(SC)nc3ccnn23)c1 [compound 194] | 153 to 155 °C
C#CCSc1nc2ccnn2c(NCc2ccccc2)c1C#N [compound 95] | 142.2 to 144.2 °C
CSc1nc2ccnn2c(Cl)c1C(=O)OCc1ccccc1 [compound 146] | 52 to 54 °C
